From patent US11597706B2, “Compounds and compositions for treating conditions associated with NLRP activity” (Novartis AG, priority 2016, dated 2023)

Each molecule was assayed against T1, hNLRP3 (THP-1, IL-1β) (Homo sapiens, UniProt Q96P20) (assay: IL-1β production in PMA-differentiated THP-1 cells stimulated with gramicidin). Settings: Table 2, gramicidin 5 μM, IL-1β readout.
T1 construct: THP-1 cells were purchased from the American Type Culture Collection; host or cells: THP-1 cells, PMA-differentiated, stimulated with gramicidin
T1 sequence (Q96P20 whole entry): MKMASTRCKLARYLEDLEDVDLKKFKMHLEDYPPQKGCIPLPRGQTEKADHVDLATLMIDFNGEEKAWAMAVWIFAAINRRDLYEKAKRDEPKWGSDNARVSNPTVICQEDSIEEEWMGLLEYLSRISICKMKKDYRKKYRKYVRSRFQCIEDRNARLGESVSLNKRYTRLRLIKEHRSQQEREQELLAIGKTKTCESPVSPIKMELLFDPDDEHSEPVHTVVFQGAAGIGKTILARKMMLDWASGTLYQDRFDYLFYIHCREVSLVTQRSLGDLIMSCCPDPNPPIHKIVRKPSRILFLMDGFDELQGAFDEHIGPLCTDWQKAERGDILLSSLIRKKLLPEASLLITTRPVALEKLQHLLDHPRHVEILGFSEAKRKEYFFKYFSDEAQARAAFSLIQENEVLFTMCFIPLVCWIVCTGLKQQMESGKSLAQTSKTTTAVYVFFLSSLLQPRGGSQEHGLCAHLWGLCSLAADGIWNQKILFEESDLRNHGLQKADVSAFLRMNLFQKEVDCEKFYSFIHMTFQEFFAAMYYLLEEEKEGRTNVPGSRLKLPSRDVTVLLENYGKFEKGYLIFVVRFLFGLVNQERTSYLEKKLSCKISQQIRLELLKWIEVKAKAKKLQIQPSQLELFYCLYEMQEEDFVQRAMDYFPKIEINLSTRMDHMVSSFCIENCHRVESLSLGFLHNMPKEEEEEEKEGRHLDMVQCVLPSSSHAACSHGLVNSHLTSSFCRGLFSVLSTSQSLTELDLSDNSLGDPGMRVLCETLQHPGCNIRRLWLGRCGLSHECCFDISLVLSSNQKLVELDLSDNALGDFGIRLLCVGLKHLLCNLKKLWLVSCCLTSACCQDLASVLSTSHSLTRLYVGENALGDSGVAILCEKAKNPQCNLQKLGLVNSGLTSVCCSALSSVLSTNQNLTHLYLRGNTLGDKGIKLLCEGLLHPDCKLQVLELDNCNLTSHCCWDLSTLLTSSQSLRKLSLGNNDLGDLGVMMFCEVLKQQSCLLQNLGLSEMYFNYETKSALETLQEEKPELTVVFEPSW
Assay type: cell-based
Method: IL-1β Production in PMA-Differentiated THP-1 Cells Stimulated With Gramicidin.
Cell culture-THP-1 cells were purchased from the American Type Culture Collection and sub-cultured according to instructions from the supplier. Prior to experiments, cells were cultured in RPMI 1640 containing 10% heat inactivated FBS, penicillin (100 units/ml) and streptomycin (100 μg/ml), and maintained in log phase prior to experimental setup. Prior to the experiment THP-1 were treated with PMA (Phorbol 12-myristate 13-acetate) (10 μg/ml) for 24 hours. The day of the experiment the media was removed and attaching cells were treated with trypsin for 2 minutes, cells were then collected, washed with PBS (phosphate buffer saline), spin down, resuspended in 2% heat inactivated FBS with RPMI at a concentration of 1×10^6 cells/ml, and 100 μl was plated in a 96 well plate. Cells were incubated with compounds for 1 hours and then stimulated with Gramicidin (5 μM) (Enzo) for 2 hours. Cell free supernatant was collected and the production of IL-1β was evaluated by ELISA. Compounds were dissolved in dimethyl sulfoxide (DMSO) and added to the culture medium to achieve desired concentration (e.g. 100, 30, 10, 3, 1, 0.3 or 0.1 μM). A vehicle only control was run concurrently with each experiment. Final DMSO concentration was 1%.
THP-1 cells were purchased from the American Type Culture Collection and sub-cultured according to instructions from the supplier. Prior to experiments, cells were cultured in complete RPMI 1640 (containing 10% heat inactivated FBS, penicillin (100 units/ml) and streptomycin (100 μg/ml)), and maintained in log phase prior to experimental setup. Prior to the experiment THP-1 were treated with PMA (Phorbol 12-myristate 13-acetate) (20 ng/ml) for 16-18 hours. On the day of the experiment the media was removed and adherent cells were detached with trypsin for 5 minutes. Cells were then harvested, washed with complete RPMI 1640, spun down, resuspended in RPMI 1640 (containing 2% heat inactivated FBS, penicillin (100 units/ml) and streptomycin (100 μg/ml). The cells were plated in a 384-well plate at a density of 50,000 cells/well (final assay volume 50 μl). Compounds were dissolved in dimethyl sulfoxide (DMSO) and added to the culture medium to achieve desired concentration (e.g. 100, 33, 11, 3.7, 1.2, 0.41, 0.14, 0.046, 0.015, 0.0051, 0.0017 μM). Cells were incubated with compounds for 1 hour and then stimulated with gramicidin (5 μM) (Enzo) for 2 hours. Cell free supernatant was collected and the production of IL-1β was evaluated by HTRF (cisbio). A vehicle only control was run concurrently with each experiment. Final DMSO concentration was 0.38%.

SMILES | IC50
CC(C)c1cc(Cl)cc(C(C)C)c1NC(=O)NS(=O)(=O)c1cc(Cl)cc(C(C)(C)O)c1 [Compound 154, 3-chloro-N-(4-chloro-2,6-diisopropylphenylcarbamoyl)-5-(2-hydroxypropan-2-yl)benzenesulfonamide] | 1000 to 5000 nM
CC(C)c1ccc(F)c(C(C)C)c1NC(=O)NS(=O)(=O)c1cc(C(C)(C)O)cc(C(C)(C)O)c1 [Compound 155, N-(3-fluoro-2,6-diisopropylphenylcarbamoyl)-3,5-bis(2-hydroxypropan-2-yl)benzenesulfonamide] | 1000 to 5000 nM
CC(C)c1ccc(F)c(C(C)C)c1NC(=O)NS(=O)(=O)c1cc(N2CCOCC2)cc(C(C)(C)O)c1 [Compound 157, N-(3-fluoro-2,6-diisopropylphenylcarbamoyl)-3-(2-hydroxypropan-2-yl)-5-morpholinobenzenesulfonamide] | 1000 to 5000 nM
COC(=O)c1cc(C(C)C)c(NC(=O)NS(=O)(=O)c2cccc(C(C)(C)O)c2)c(C(C)C)c1 [Compound 158, methyl 4-(3-(3-(2-hydroxypropan-2-yl)phenylsulfonyl)ureido)-3,5-diisopropylbenzoate] | 5000 to 15000 nM
CC(C)c1ccc(F)c(C(C)C)c1NC(=O)NS(=O)(=O)c1cc(-c2ccncc2)cc(C(C)(C)O)c1 [Compound 159, N-(3-fluoro-2,6-diisopropylphenylcarbamoyl)-3-(2-hydroxypropan-2-yl)-5-(pyridin-4-yl)benzenesulfonamide] | 5000 to 15000 nM
CC(C)(O)c1ccc(S(=O)(=O)NC(=O)Nc2c3c(c(F)c4c2CCC4)CCC3)cc1 [Compound 160, N-(8-fluoro-1,2,3,5,6,7-hexahydro-sindacen-4-ylcarbamoyl)-4-(2-hydroxypropan-2-yl)benzenesulfonamide] | < 1000 nM
CC(C)(O)c1ccc(S(=O)(=O)NC(=O)Nc2c3c(c(Cl)c4c2CCC4)CCC3)cc1 [Compound 161, N-(8-chloro-1,2,3,5,6,7-hexahydro-sindacen-4-ylcarbamoyl)-4-(2-hydroxypropan-2-yl)benzenesulfonamide] | < 1000 nM
CC(C)c1cc(Cl)cc(C(C)C)c1NC(=O)NS(=O)(=O)c1ccc(C(C)(C)O)cc1 [Compound 162, N-(4-chloro-2,6-diisopropylphenylcarbamoyl)-4-(2-hydroxypropan-2-yl)benzenesulfonamide] | < 1000 nM
CC(C)(O)c1ccc(S(=O)(=O)NC(=O)Nc2c3c(cc4c2CCC4)CCC3)cc1CO [Compound 163, N-(1,2,3,5,6,7-hexahydro-sindacen-4-ylcarbamoyl)-3-(hydroxymethyl)-4-(2-hydroxypropan-2-yl)benzenesulfonamide] | < 1000 nM
CC(C)(O)c1ccc(S(=O)(=O)NC(=O)Nc2c3c(c(C#N)c4c2CCC4)CCC3)cc1 [Compound 164, N-(8-cyano-1,2,3,5,6,7-hexahydro-sindacen-4-ylcarbamoyl)-4-(2-hydroxypropan-2-yl)benzenesulfonamide] | < 1000 nM
CC(C)c1cc(F)cc(C(C)C)c1NC(=O)NS(=O)(=O)c1ccc(C(C)(C)O)cc1 [Compound 165, N-(4-fluoro-2,6-diisopropylphenylcarbamoyl)-4-(2-hydroxypropan-2-yl)benzenesulfonamide] | < 1000 nM
CC(C)(O)c1ccc(S(=O)(=O)NC(=O)Nc2c3c(cc4c2CCC4)CCC3)cn1 [Compound 166, N-(1,2,3,5,6,7-hexahydros-indacen-4-ylcarbamoyl)-6-(2-hydroxypropan-2-yl)pyridine-3-sulfonamide] | < 1000 nM
CC(C)(O)c1ccc(S(=O)(=O)NC(=O)Nc2c3c(cc4c2CCC4)CCC3)cc1 [Compound 167, N-(1,2,3,5,6,7-hexahydros-indacen-4-ylcarbamoyl)-4-(2-hydroxypropan-2-yl)benzenesulfonamide] | < 1000 nM
CC(C)c1cc(C#N)cc(C(C)C)c1NC(=O)NS(=O)(=O)c1ccc(C(C)(C)O)cc1 [Compound 168, N-(4-cyano-2,6-diisopropylphenylcarbamoyl)-4-(2-hydroxypropan-2-yl)benzenesulfonamide] | 1000 to 5000 nM
CC(C)c1cccc(C(C)C)c1NC(=O)NS(=O)(=O)c1ccc(C(C)(C)O)cc1 [Compound 169, N-(2,6-diisopropylphenylcarbamoyl)-4-(2-hydroxypropan-2-yl)benzenesulfonamide] | 1000 to 5000 nM
CC(C)c1ccc(F)c(C(C)C)c1NC(=O)NS(=O)(=O)c1ccc(C(C)(C)O)cc1 [Compound 170, N-(3-fluoro-2,6-diisopropylphenylcarbamoyl)-4-(2-hydroxypropan-2-yl)benzenesulfonamide] | 1000 to 5000 nM
COC(=O)c1ccc(F)c(S(=O)(=O)NC(=O)Nc2c(C(C)C)cc(Cl)cc2C(C)C)c1 [Compound 171, methyl 3-(N-(4-chloro-2,6-diisopropylphenylcarbamoyl)sulfamoyl)-4-fluorobenzoate] | 1000 to 5000 nM
